From the NIST ThermoML archive (doi:10.1021/je200721d)

Test: xn = mol fraction of the nth substance listed
Settings: Liquid, Vibrating tube method

CCCCCCCC [octane] + CCCCCC
Settings | mass density [kg/m3]
342.99 K, 19000 kPa, x2 = 0.1654 | 676.86
342.99 K, 20000 kPa, x2 = 0.1654 | 677.79
342.99 K, 21000 kPa, x2 = 0.1654 | 678.7
342.99 K, 22000 kPa, x2 = 0.1654 | 679.59
342.99 K, 23000 kPa, x2 = 0.1654 | 680.47
342.99 K, 24000 kPa, x2 = 0.1654 | 681.32
342.99 K, 25000 kPa, x2 = 0.1654 | 682.14
343 K, 1000 kPa, x2 = 0.7995 | 627.89
343 K, 2000 kPa, x2 = 0.7995 | 629.27
343 K, 3000 kPa, x2 = 0.7995 | 630.64
343 K, 4000 kPa, x2 = 0.7995 | 632.01
343 K, 5000 kPa, x2 = 0.7995 | 633.35
343 K, 6000 kPa, x2 = 0.7995 | 634.69
343 K, 7000 kPa, x2 = 0.7995 | 636.02
343 K, 8000 kPa, x2 = 0.7995 | 637.32
343 K, 9000 kPa, x2 = 0.7995 | 638.61
343 K, 10000 kPa, x2 = 0.7995 | 639.87
343 K, 11000 kPa, x2 = 0.7995 | 641.1
343 K, 12000 kPa, x2 = 0.7995 | 642.32
343 K, 13000 kPa, x2 = 0.7995 | 643.52
343 K, 14000 kPa, x2 = 0.7995 | 644.7
343 K, 15000 kPa, x2 = 0.7995 | 645.87
343 K, 16000 kPa, x2 = 0.7995 | 647.01
343 K, 17000 kPa, x2 = 0.7995 | 648.12
343 K, 18000 kPa, x2 = 0.7995 | 649.21
343 K, 19000 kPa, x2 = 0.7995 | 650.28
343 K, 20000 kPa, x2 = 0.7995 | 651.33
343 K, 21000 kPa, x2 = 0.7995 | 652.33
343 K, 22000 kPa, x2 = 0.7995 | 653.33
343 K, 23000 kPa, x2 = 0.7995 | 654.3
343 K, 24000 kPa, x2 = 0.7995 | 655.24
343 K, 25000 kPa, x2 = 0.7995 | 656.16
352.79 K, 1000 kPa, x2 = 0.5749 | 631.4
352.79 K, 2000 kPa, x2 = 0.5749 | 632.83
352.79 K, 3000 kPa, x2 = 0.5749 | 634.2
352.79 K, 4000 kPa, x2 = 0.5749 | 635.57
352.79 K, 5000 kPa, x2 = 0.5749 | 636.95
352.79 K, 6000 kPa, x2 = 0.5749 | 638.3
352.79 K, 7000 kPa, x2 = 0.5749 | 639.63
352.79 K, 8000 kPa, x2 = 0.5749 | 640.97
352.79 K, 9000 kPa, x2 = 0.5749 | 642.26
352.79 K, 10000 kPa, x2 = 0.5749 | 643.53
352.79 K, 11000 kPa, x2 = 0.5749 | 644.82
352.79 K, 12000 kPa, x2 = 0.5749 | 646.04
352.79 K, 13000 kPa, x2 = 0.5749 | 647.27
352.79 K, 14000 kPa, x2 = 0.5749 | 648.46
352.79 K, 15000 kPa, x2 = 0.5749 | 649.66
352.79 K, 16000 kPa, x2 = 0.5749 | 650.79
352.79 K, 17000 kPa, x2 = 0.5749 | 651.95
352.79 K, 18000 kPa, x2 = 0.5749 | 653.02
352.79 K, 19000 kPa, x2 = 0.5749 | 654.11
352.79 K, 20000 kPa, x2 = 0.5749 | 655.18
352.79 K, 21000 kPa, x2 = 0.5749 | 656.24
352.79 K, 22000 kPa, x2 = 0.5749 | 657.22
352.79 K, 23000 kPa, x2 = 0.5749 | 658.23
352.79 K, 24000 kPa, x2 = 0.5749 | 659.22
352.79 K, 25000 kPa, x2 = 0.5749 | 660.15
352.85 K, 1000 kPa, x2 = 0.2199 | 646.75
352.85 K, 2000 kPa, x2 = 0.2199 | 648.04
352.85 K, 3000 kPa, x2 = 0.2199 | 649.32
352.85 K, 4000 kPa, x2 = 0.2199 | 650.6
352.85 K, 5000 kPa, x2 = 0.2199 | 651.87
352.85 K, 6000 kPa, x2 = 0.2199 | 653.11
352.85 K, 7000 kPa, x2 = 0.2199 | 654.35
352.85 K, 8000 kPa, x2 = 0.2199 | 655.57
352.85 K, 9000 kPa, x2 = 0.2199 | 656.79
352.85 K, 10000 kPa, x2 = 0.2199 | 657.97
352.85 K, 11000 kPa, x2 = 0.2199 | 659.16
352.85 K, 12000 kPa, x2 = 0.2199 | 660.32
352.85 K, 13000 kPa, x2 = 0.2199 | 661.45
352.85 K, 14000 kPa, x2 = 0.2199 | 662.57
352.85 K, 15000 kPa, x2 = 0.2199 | 663.67
352.85 K, 16000 kPa, x2 = 0.2199 | 664.74
352.85 K, 17000 kPa, x2 = 0.2199 | 665.8
352.85 K, 18000 kPa, x2 = 0.2199 | 666.83
352.85 K, 19000 kPa, x2 = 0.2199 | 667.85
352.85 K, 20000 kPa, x2 = 0.2199 | 668.84
352.85 K, 21000 kPa, x2 = 0.2199 | 669.8
352.85 K, 22000 kPa, x2 = 0.2199 | 670.75
352.85 K, 23000 kPa, x2 = 0.2199 | 671.68
352.85 K, 24000 kPa, x2 = 0.2199 | 672.59
352.85 K, 25000 kPa, x2 = 0.2199 | 673.48
352.91 K, 1000 kPa, x2 = 0.1654 | 648.87
352.91 K, 1000 kPa, x2 = 0.9308 | 609.77
352.91 K, 2000 kPa, x2 = 0.1654 | 650.15
352.91 K, 2000 kPa, x2 = 0.9308 | 611.36
352.91 K, 3000 kPa, x2 = 0.1654 | 651.43
352.91 K, 3000 kPa, x2 = 0.9308 | 612.95
352.91 K, 4000 kPa, x2 = 0.1654 | 652.68
352.91 K, 4000 kPa, x2 = 0.9308 | 614.51
352.91 K, 5000 kPa, x2 = 0.1654 | 653.95
352.91 K, 5000 kPa, x2 = 0.9308 | 616.06
352.91 K, 6000 kPa, x2 = 0.1654 | 655.19
352.91 K, 6000 kPa, x2 = 0.9308 | 617.57
